Test results published in patent EP1561465A2, “Methods of use of fluoroquinolone compounds against bacteria” (LG Life Sciences, Ltd., priority 1999, dated 2001).
Converted amounts (≈) assume the structure as drawn. “And” between values parts separate entries of the source, which are not always exact repeats. Identical values can stand only once. Like-named read-outs stand apart in the source and are kept apart here.

Tests used:
Format in all cases: cell-based
Moraxella catarrhalis = test: MIC by NCCLS reference broth microdilution, 450 respiratory tract pathogens
Staphylococcus aureus = test: as above
Streptococcus pneumoniae = test: MIC by NCCLS broth microdilution, 1100 Japanese clinical isolates 1997-1998; conditions: for MIC50 / MIC90 / MIC: Streptococcus pneumoniae; for MIC50: read-out: MIC50; for MIC90: read-out: MIC90; for MIC: Streptococcus pneumoniae quinolone resistant
Providencia rettgeri = test: as above
[1] = tested on: Gram positive anaerobic and facultative anaerobic pathogens; test: microbe, parasite or virus in culture
[2] = tested on: Gram negative anaerobic pathogens and facultative anaerobic pathogens; test: MIC by agar dilution, Brucella HK agar with 5% laked sheep blood, anaerobic reference strains
[3] = β-lactamase positive and erythromycin resistant (n = 10)
[4] = Streptococcus pneumoniae amoxicillin resistant (n=40)
[5] = Streptococcus pneumoniae amoxicillin susceptible (n=35)
[6] = Streptococcus pneumoniae erythromycin resistant (n=34)
[7] = Streptococcus pneumoniae erythromycin susceptible (n=11)

## C[C@@H]1CN(c2c(F)c(N)c3c(=O)c(C(=O)O)cn(C4CC4)c3c2F)C[C@H](C)N1 [Sparfloxacin, sparfloxacin]
Moraxella catarrhalis; Moraxella catarrhalis (n = 50)
  MIC: 0.00375 to 0.06 µg/mL (≈ 0.00956 to 0.153 µM)
  MIC50: 0.015 µg/mL (≈ 0.0382 µM)
  MIC90: 0.03 µg/mL (≈ 0.0765 µM)
Moraxella catarrhalis; β-lactamase negative (n = 13)
  MIC: 0.00375 to 0.06 µg/mL (≈ 0.00956 to 0.153 µM)
  MIC50: 0.0075 µg/mL (≈ 0.0191 µM)
  MIC90: 0.06 µg/mL (≈ 0.153 µM)
Moraxella catarrhalis; β-lactamase positive (n = 37)
  MIC: 0.00375 to 0.06 µg/mL (≈ 0.00956 to 0.153 µM)
  MIC50: 0.015 µg/mL (≈ 0.0382 µM)
  MIC90: 0.03 µg/mL (≈ 0.0765 µM)
Staphylococcus aureus; Staphylococcus aureus (n = 50)
  MIC: 0.06 to 1 µg/mL (≈ 0.153 to 2.55 µM)
  MIC50: 0.5 µg/mL (≈ 1.27 µM)
  MIC90: 0.5 µg/mL (≈ 1.27 µM)
Staphylococcus aureus; β-lactamase negative (n = 20)
  MIC: 0.06 to 1 µg/mL (≈ 0.153 to 2.55 µM)
  MIC50: 0.5 µg/mL (≈ 1.27 µM)
  MIC90: 0.5 µg/mL (≈ 1.27 µM)
Staphylococcus aureus; β-lactamase positive (n = 20)
  MIC: 0.12 to 1 µg/mL (≈ 0.306 to 2.55 µM)
  MIC50: 0.5 µg/mL (≈ 1.27 µM)
  MIC90: 0.5 µg/mL (≈ 1.27 µM)
Staphylococcus aureus; [3]
  MIC: 0.25 to 1 µg/mL (≈ 0.637 to 2.55 µM)
  MIC50: 0.25 µg/mL (≈ 0.637 µM)
  MIC90: 0.5 µg/mL (≈ 1.27 µM)
Streptococcus pneumoniae; [4]
  MIC Range: 0.125 to 4 µg/mL
  MIC50: 0.25 µg/mL (≈ 0.637 µM)
  MIC90: 0.25 µg/mL (≈ 0.637 µM)
Streptococcus pneumoniae; [5]
  MIC Range: 0.032 to 4 µg/mL
  MIC50: 0.25 µg/mL (≈ 0.637 µM)
  MIC90: 0.5 µg/mL (≈ 1.27 µM)
Streptococcus pneumoniae; [6]
  MIC Range: 0.032 to 4 µg/mL
  MIC50: 0.25 µg/mL (≈ 0.637 µM)
  MIC90: 0.25 µg/mL (≈ 0.637 µM)
Streptococcus pneumoniae; [7]
  MIC Range: 0.125 to 0.25 µg/mL
  MIC50: 0.25 µg/mL (≈ 0.637 µM)
  MIC90: 0.25 µg/mL (≈ 0.637 µM)
Streptococcus pneumoniae; strain TMS1
  MIC: 0.5 µg/mL (≈ 1.27 µM)
Streptococcus pneumoniae; strain TMS2
  MIC: 8 µg/mL (≈ 20.4 µM)
Providencia rettgeri; Providencia rettgeri (n=12)
  MIC90: 16 µg/mL (≈ 40.8 µM)
  MIC Range: 0.125 to 16 µg/mL
Providencia rettgeri; Providencia rettgeri (n=12), read-out: MIC50
  MIC50: 0.25 µg/mL (≈ 0.637 µM)
[1]; Bifidobacterium adolescentis, ATCC15703
  MIC: 0.5 µg/mL (≈ 1.27 µM)
[1]; Bifidobacterium bifidum, JCM1255
  MIC: 2 µg/mL (≈ 5.1 µM)
[1]; Bifidobacterium breve, ATCC15700
  MIC: 2 µg/mL (≈ 5.1 µM)
[1]; Bifidobacterium longum, ATCC15707
  MIC: 2 µg/mL (≈ 5.1 µM)
[1]; Bifidobacterium pseudolongum, ATCC25526
  MIC: 2 µg/mL (≈ 5.1 µM)
[1]; Clostridioides difficile
  MIC: 8 µg/mL (≈ 20.4 µM)
[1]; Clostridium perfringens, ATCC13124
  MIC: 0.125 µg/mL (≈ 0.319 µM)
[1]; Clostridium septicum, ATCC12464
  MIC: 0.125 µg/mL (≈ 0.319 µM)
[1]; Cutibacterium acnes, ATCC11828
  MIC: 0.25 µg/mL (≈ 0.637 µM)
[1]; Eggerthella lenta, ATCC25559
  MIC: 0.5 µg/mL (≈ 1.27 µM)
[1]; Finegoldia magna, ATCC29328
  MIC: 0.125 µg/mL (≈ 0.319 µM)
[1]; Gemella morbillorum, ATCC27824
  MIC: 0.25 µg/mL (≈ 0.637 µM)
[1]; Lacticaseibacillus casei, JCM1134
  MIC: 0.125 µg/mL (≈ 0.319 µM)
[1]; Lactiplantibacillus plantarum, JCM1149
  MIC: 8 µg/mL (≈ 20.4 µM)
[1]; Lactobacillus acidophilus, JCM1132
  MIC: 32 µg/mL (≈ 81.5 µM)
[1]; Levilactobacillus brevis, JCM1059
  MIC: 2 µg/mL (≈ 5.1 µM)
[1]; Ligilactobacillus salivarius, JCM1231
  MIC: 0.5 µg/mL (≈ 1.27 µM)
[1]; Limosilactobacillus reuteri, JCM1112
  MIC: 2 µg/mL (≈ 5.1 µM)
[1]; Limosilactobacillus reuteri, JCM1173
  MIC: 2 µg/mL (≈ 5.1 µM)
[1]; Paraclostridium sordellii, ATCC9714
  MIC: 2 µg/mL (≈ 5.1 µM)
[1]; Parvimonas micra
  MIC: 0.5 µg/mL (≈ 1.27 µM)
[1]; Peptoniphilus asaccharolyticus
  MIC: 0.25 µg/mL (≈ 0.637 µM)
[1]; Peptoniphilus indolicus
  MIC: 0.06 µg/mL (≈ 0.153 µM)
[1]; Peptostreptococcus anaerobius, ATCC27337
  MIC: 0.5 µg/mL (≈ 1.27 µM)
[1]; Schaalia odontolytica
  MIC: 4 µg/mL (≈ 10.2 µM)
[1]; Staphylococcus saccharolyticus, ATCC14953
  MIC: 0.25 µg/mL (≈ 0.637 µM)
[1]; Streptococcus constellatus, ATCC27823
  MIC: 0.5 µg/mL (≈ 1.27 µM)
[1]; Streptococcus intermedius, ATCC27335
  MIC: 0.5 µg/mL (≈ 1.27 µM)
[1]; Thomasclavelia ramosa, ATCC25582
  MIC: 4 µg/mL (≈ 10.2 µM)
[2]
  MIC: 2 µg/mL and 0.125 µg/mL
[2]; Bacteroides eggerthii, ATCC27754, Bacteroides eggerthii ATCC27754, read-out: MIC
  MIC: 4 µg/mL (≈ 10.2 µM)
[2]; Bacteroides fragilis, ATCC25285, Bacteroides fragilis ATCC25285, read-out: MIC
  MIC: 1 µg/mL (≈ 2.55 µM)
[2]; Bacteroides fragilis, Bacteroides fragilis GA15562, read-out: MIC
  MIC: 1 µg/mL (≈ 2.55 µM)
[2]; Bacteroides fragilis, Bacteroides fragilis GA-I0558, read-out: MIC
  MIC: 1 µg/mL (≈ 2.55 µM)
[2]; Bacteroides fragilis, Bacteroides fragilis GA-I7955, read-out: MIC
  MIC: 1 µg/mL (≈ 2.55 µM)
[2]; Bacteroides fragilis, Bacteroides fragilis GAI10150, read-out: MIC
  MIC: 1 µg/mL (≈ 2.55 µM)
[2]; Bacteroides fragilis, Bacteroides fragilis GAI30079, read-out: MIC
  MIC: 2 µg/mL (≈ 5.1 µM)
[2]; Bacteroides fragilis, Bacteroides fragilis GAI30144, read-out: MIC
  MIC: 1 µg/mL (≈ 2.55 µM)
[2]; Bacteroides fragilis, NCTC10581, Bacteroides fragilis NCTC10581, read-out: MIC
  MIC: 1 µg/mL (≈ 2.55 µM)
[2]; Bacteroides ovatus, ATCC8483, Bacteroides ovatus ATCC8483, read-out: MIC
  MIC: 2 µg/mL (≈ 5.1 µM)
[2]; Bacteroides thetaiotaomicron, ATCC29741, Bacteroides thetaiotaomicron ATCC29741, read-out: MIC
  MIC: 2 µg/mL (≈ 5.1 µM)
[2]; Bacteroides uniformis, ATCC8492, Bacteroides uniformis ATCC8492, read-out: MIC
  MIC: 1 µg/mL (≈ 2.55 µM)
[2]; Bilophilla wadsworthia WAL7959, read-out: MIC
  MIC: 0.5 µg/mL (≈ 1.27 µM)
[2]; Campylobacter gracilis, JCM8538, Campylobacter gracilis JCM8538, read-out: MIC
  MIC: ≤ 0.03 µg/mL
[2]; Campylobacter ureolyticus, NCTC10941, Bacteroides ureolyticus NCTC10941, read-out: MIC
  MIC: 0.06 µg/mL (≈ 0.153 µM)
[2]; Capnocytophaga ochracea, Capnocytophaga ochracea GAI5586, read-out: MIC
  MIC: ≤ 0.03 µg/mL
[2]; Desullomonas pigra DSM749, read-out: MIC
  MIC: 0.06 µg/mL (≈ 0.153 µM)
[2]; Fusobacterium necrophorum, ATCC25286, Fusobacterium necrophorum ATCC25286, read-out: MIC
  MIC: 1 µg/mL (≈ 2.55 µM)
[2]; Fusobacterium nucleatum, ATCC25586, Fusobacterium nucleatum ATCC25586, read-out: MIC
  MIC: 1 µg/mL (≈ 2.55 µM)
[2]; Fusobacterium varium, ATCC8501, Fusobacterium varium ATCC8501, read-out: MIC
  MIC: 8 µg/mL (≈ 20.4 µM)
[2]; Hoylesella oralis, ATCC33269, Prevotella oralis ATCC33269, read-out: MIC
  MIC: 4 µg/mL (≈ 10.2 µM)
[2]; Parabacteroides distasonis, ATCC8503, Bacteroides distasonis ATCC8503, read-out: MIC
  MIC: 2 µg/mL (≈ 5.1 µM)
[2]; Phocaeicola vulgatus, ATCC8482, Bacteroides vulgatus ATCC8482, read-out: MIC
  MIC: 2 µg/mL (≈ 5.1 µM)
[2]; Porphyromonas asaccharolytica, ATCC25260, Porphyromonas asaccharolytica ATCC25260, read-out: MIC
  MIC: 0.25 µg/mL (≈ 0.637 µM)
[2]; Prevotella bivia, ATCC29303, Prevotella bivia ATCC29303, read-out: MIC
  MIC: 8 µg/mL (≈ 20.4 µM)
[2]; Prevotella buccaeATCC33574, read-out: MIC
  MIC: 2 µg/mL (≈ 5.1 µM)
[2]; Prevotella corporis, Prevotella corporis GAI91000, read-out: MIC
  MIC: 2 µg/mL (≈ 5.1 µM)
[2]; Prevotella heparinolytica, ATCC35895, Prevotella heparinolytica ATCC35895, read-out: MIC
  MIC: 0.5 µg/mL (≈ 1.27 µM)
[2]; Prevotella melaninogenica, Prevotella melaninogenica GAI5490, read-out: MIC
  MIC: 2 µg/mL (≈ 5.1 µM)
[2]; Segatella oris, ATCC33573, Prevotella oris ATCC33573, read-out: MIC
  MIC: 2 µg/mL (≈ 5.1 µM)
[2]; Sutterella wadsworthensis, ATCC51579, Sutterella wadsworthensis ATCC51579, read-out: MIC
  MIC: 0.25 µg/mL (≈ 0.637 µM)
[2]; Veillonella dispar, ATCC17748
  MIC: 0.125 µg/mL (≈ 0.319 µM)
[2]; Veillonella parvula, ATCC10790, Veillonella parvula ATCC10790, read-out: MIC
  MIC: 0.25 µg/mL (≈ 0.637 µM)

## NC1CCN(c2nc3c(cc2F)c(=O)c(C(=O)O)cn3-c2ccc(F)cc2F)C1 (stereo not shown) [Tosufloxacin, tosufloxacin]
Streptococcus pneumoniae; [4]
  MIC Range: 0.063 to 4 µg/mL
  MIC50: 0.25 µg/mL (≈ 0.618 µM)
  MIC90: 0.25 µg/mL (≈ 0.618 µM)
Streptococcus pneumoniae; [5]
  MIC Range: 0.125 to 2 µg/mL
  MIC50: 0.25 µg/mL (≈ 0.618 µM)
  MIC90: 0.5 µg/mL (≈ 1.24 µM)
Streptococcus pneumoniae; [6]
  MIC Range: 0.063 to 4 µg/mL
  MIC50: 0.25 µg/mL (≈ 0.618 µM)
  MIC90: 0.25 µg/mL (≈ 0.618 µM)
Streptococcus pneumoniae; [7]
  MIC Range: 0.125 to 0.25 µg/mL
  MIC50: 0.25 µg/mL (≈ 0.618 µM)
  MIC90: 0.25 µg/mL (≈ 0.618 µM)
Streptococcus pneumoniae; strain TMS1
  MIC: 0.5 µg/mL (≈ 1.24 µM)
Streptococcus pneumoniae; strain TMS2
  MIC: 8 µg/mL (≈ 19.8 µM)
Providencia rettgeri; Providencia rettgeri
  MIC50: 0.125 µg/mL (≈ 0.309 µM)
Providencia rettgeri; Providencia rettgeri (n=12)
  MIC90: 8 µg/mL (≈ 19.8 µM)
  MIC Range: 0.063 to 8 µg/mL
